Like-named read-outs stand apart in the source and are kept apart here.
What was measured:
Test in all cases: Test A preemergence
Type in all cases: in vivo
Kochia (Kochia scoparia) = details: Bassia scoparia, pre-emergence, 240 h; for pest or weed control at 125 g/ha: 125 g ai/ha; for pest or weed control at 500 g/ha: 500 g ai/ha
Outline: (§1)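 Visual injury scores from 0, no effect, to 100, complete control, were assigned versus untreated controls roughly 10 d after treatment in the greenhouse. Test chemicals, formulated with surfactant in a non-phytotoxic solvent, were applied to planted seeds as a preemergence soil spray or postemergence to one- to two-leaf plants 2 to 10 cm tall, in loam–sand soil.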

[1] = system: barnyardgrass (Echinochloa crus-galli); details: Echinochloa crus-galli, pre-emergence, 240 h; for pest or weed control at 125 g/ha: 125 g ai/ha; for pest or weed control at 500 g/ha: 500 g ai/ha
Outline: as §1

[2] = system: giant foxtail (Setaria faberii); details: Setaria faberi, pre-emergence, 240 h; for pest or weed control at 125 g/ha: 125 g ai/ha; for pest or weed control at 500 g/ha: 500 g ai/ha
Outline: as §1

[3] = system: pigweed (Amaranthus retroflexus); details: Amaranthus retroflexus, pre-emergence, 240 h; for pest or weed control at 125 g/ha: 125 g ai/ha; for pest or weed control at 500 g/ha: 500 g ai/ha
[4] = system: ragweed (common ragweed, Ambrosia elatior); details: Ambrosia artemisiifolia, pre-emergence, 240 h; for pest or weed control at 125 g/ha: 125 g ai/ha; for pest or weed control at 500 g/ha: 500 g ai/ha
Outline: as §1

[5] = system: ryegrass, Italian (Italian ryegrass, Lolium multiflorum); details: Lolium multiflorum, pre-emergence, 240 h; for pest or weed control at 125 g/ha: 125 g ai/ha; for pest or weed control at 500 g/ha: 500 g ai/ha
Outline: as §1

## CN1CC[C@H](c2ccc3c(c2)OC(F)(F)O3)[C@@H](C(=O)Nc2ccccc2C(F)(F)F)C1=O [Compound 811]
Kochia (Kochia scoparia); preemergence, visual rating after approx. 10 d, 0 to 100 scale where 0 is no effect and 100 is complete control, read-out: Plant response rating, Kochia
  pest or weed control at 125 g/ha: 0%
Kochia (Kochia scoparia); Preemergence, 31 g ai/ha, 0 to 100 scale (0 no effect, 100 complete control), read-out: Plant response rating, Kochia
  pest or weed control at 31 g/ha: 0%
[1]; preemergence, visual rating after approx. 10 d, 0 to 100 scale where 0 is no effect and 100 is complete control, read-out: Plant response rating, Barnyardgrass
  pest or weed control at 125 g/ha: 40%
[1]; Preemergence, 31 g ai/ha, 0 to 100 scale (0 no effect, 100 complete control), read-out: Plant response rating, Barnyardgrass
  pest or weed control at 31 g/ha: 0%
[2]; preemergence, visual rating after approx. 10 d, 0 to 100 scale where 0 is no effect and 100 is complete control, read-out: Plant response rating, Foxtail, Giant
  pest or weed control at 125 g/ha: 40%
[2]; Preemergence, 31 g ai/ha, 0 to 100 scale (0 no effect, 100 complete control), read-out: Plant response rating, Foxtail, Giant
  pest or weed control at 31 g/ha: 0%
[3]; preemergence, visual rating after approx. 10 d, 0 to 100 scale where 0 is no effect and 100 is complete control, read-out: Plant response rating, Pigweed
  pest or weed control at 125 g/ha: 0%
[3]; Preemergence, 31 g ai/ha, 0 to 100 scale (0 no effect, 100 complete control), read-out: Plant response rating, Pigweed
  pest or weed control at 31 g/ha: 0%
[4]; preemergence, visual rating after approx. 10 d, 0 to 100 scale where 0 is no effect and 100 is complete control, read-out: Plant response rating, Ragweed
  pest or weed control at 125 g/ha: 0%
[4]; Preemergence, 31 g ai/ha, 0 to 100 scale (0 no effect, 100 complete control), read-out: Plant response rating, Ragweed
  pest or weed control at 31 g/ha: 0%
[5]; preemergence, visual rating after approx. 10 d, 0 to 100 scale where 0 is no effect and 100 is complete control, read-out: Plant response rating, Ryegrass, Italian
  pest or weed control at 125 g/ha: 0%
[5]; Preemergence, 31 g ai/ha, 0 to 100 scale (0 no effect, 100 complete control), read-out: Plant response rating, Ryegrass, Italian
  pest or weed control at 31 g/ha: 0%

## CCc1ccc([C@H]2CNC(=O)[C@@H]2C(=O)Nc2c(F)cccc2F)cc1 [Compound 1248]
Kochia (Kochia scoparia); preemergence, visual injury rating, 0 to 100 scale where 0 is no effect and 100 is complete control, approximately 10 d, read-out: Kochia plant response rating
  pest or weed control at 125 g/ha: 0%
Kochia (Kochia scoparia); preemergence, 0 to 100 scale where 0 is no effect and 100 is complete control, read-out: Kochia plant response rating
  pest or weed control at 500 g/ha: 0%
[1]; preemergence, visual injury rating, 0 to 100 scale where 0 is no effect and 100 is complete control, approximately 10 d, read-out: Barnyardgrass plant response rating
  pest or weed control at 125 g/ha: 70%
[1]; preemergence, 0 to 100 scale where 0 is no effect and 100 is complete control, read-out: Barnyardgrass plant response rating
  pest or weed control at 500 g/ha: 90%
[2]; preemergence, visual injury rating, 0 to 100 scale where 0 is no effect and 100 is complete control, approximately 10 d, read-out: Foxtail, Giant plant response rating
  pest or weed control at 125 g/ha: 0%
[2]; preemergence, 0 to 100 scale where 0 is no effect and 100 is complete control, read-out: Foxtail, Giant plant response rating
  pest or weed control at 500 g/ha: 50%
[3]; preemergence, visual injury rating, 0 to 100 scale where 0 is no effect and 100 is complete control, approximately 10 d, read-out: Pigweed plant response rating
  pest or weed control at 125 g/ha: 0%
[3]; preemergence, 0 to 100 scale where 0 is no effect and 100 is complete control, read-out: Pigweed plant response rating
  pest or weed control at 500 g/ha: 0%
[4]; preemergence, visual injury rating, 0 to 100 scale where 0 is no effect and 100 is complete control, approximately 10 d, read-out: Ragweed plant response rating
  pest or weed control at 125 g/ha: 0%
[4]; preemergence, 0 to 100 scale where 0 is no effect and 100 is complete control, read-out: Ragweed plant response rating
  pest or weed control at 500 g/ha: 0%
[5]; preemergence, visual injury rating, 0 to 100 scale where 0 is no effect and 100 is complete control, approximately 10 d, read-out: Ryegrass, Italian plant response rating
  pest or weed control at 125 g/ha: 0%
[5]; preemergence, 0 to 100 scale where 0 is no effect and 100 is complete control, read-out: Ryegrass, Italian plant response rating
  pest or weed control at 500 g/ha: 0%

## CSc1ccccc1NC(=O)[C@H]1C(=O)N(C)C[C@@H]1c1ccc(C(F)(F)F)cc1 [Compound 1391]
Kochia (Kochia scoparia); preemergence, 0 to 100 scale (0 no effect, 100 complete control), read-out: Plant response rating, Kochia
  pest or weed control at 500 g/ha: 90%
Kochia (Kochia scoparia); Preemergence, 0 to 100 scale (0 no effect, 100 complete control), read-out: Plant response rating, Kochia
  pest or weed control at 125 g/ha: 90%
[1]; preemergence, 0 to 100 scale (0 no effect, 100 complete control), read-out: Plant response rating, Barnyardgrass
  pest or weed control at 500 g/ha: 100%
[1]; Preemergence, 0 to 100 scale (0 no effect, 100 complete control), read-out: Plant response rating, Barnyardgrass
  pest or weed control at 125 g/ha: 90%
[2]; preemergence, 0 to 100 scale (0 no effect, 100 complete control), read-out: Plant response rating, Foxtail, Giant
  pest or weed control at 500 g/ha: 100%
[2]; Preemergence, 0 to 100 scale (0 no effect, 100 complete control), read-out: Plant response rating, Foxtail, Giant
  pest or weed control at 125 g/ha: 100%
[3]; preemergence, 0 to 100 scale (0 no effect, 100 complete control), read-out: Plant response rating, Pigweed
  pest or weed control at 500 g/ha: 90%
[3]; Preemergence, 0 to 100 scale (0 no effect, 100 complete control), read-out: Plant response rating, Pigweed
  pest or weed control at 125 g/ha: 90%
[4]; preemergence, 0 to 100 scale (0 no effect, 100 complete control), read-out: Plant response rating, Ragweed
  pest or weed control at 500 g/ha: 90%
[4]; Preemergence, 0 to 100 scale (0 no effect, 100 complete control), read-out: Plant response rating, Ragweed
  pest or weed control at 125 g/ha: 90%
[5]; preemergence, 0 to 100 scale (0 no effect, 100 complete control), read-out: Plant response rating, Ryegrass, Italian
  pest or weed control at 500 g/ha: 70%
[5]; Preemergence, 0 to 100 scale (0 no effect, 100 complete control), read-out: Plant response rating, Ryegrass, Italian
  pest or weed control at 125 g/ha: 30%

— patent publication US12077503B2, “Substituted cyclic amides and their use as herbicides” (FMC CORPORATION, priority 2015, dated 2024)
